{
  "source": "ChEMBL document CHEMBL4433213",
  "about": "“Investigation on 2',3'-O-Substituted ATP Derivatives and Analogs as Novel P2X3 Receptor Antagonists” (ACS Med Chem Lett, 2019)",
  "biological_target": "T1, P2X purinoceptor 3 (Mus musculus) (UniProt Q3UR32)",
  "T1 sequence (whole entry)": "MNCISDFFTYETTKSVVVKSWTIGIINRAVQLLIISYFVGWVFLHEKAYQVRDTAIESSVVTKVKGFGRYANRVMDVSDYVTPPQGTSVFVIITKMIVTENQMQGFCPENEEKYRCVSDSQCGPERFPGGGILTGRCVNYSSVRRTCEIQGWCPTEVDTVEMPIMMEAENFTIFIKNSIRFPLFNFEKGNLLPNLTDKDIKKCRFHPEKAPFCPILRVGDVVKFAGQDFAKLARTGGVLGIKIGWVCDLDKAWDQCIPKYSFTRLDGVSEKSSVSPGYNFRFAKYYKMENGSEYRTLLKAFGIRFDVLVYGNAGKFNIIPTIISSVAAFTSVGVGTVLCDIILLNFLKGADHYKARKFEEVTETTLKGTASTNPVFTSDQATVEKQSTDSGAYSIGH",
  "assay": "Agonist activity at P2X3R in mouse TG sensory neurons assessed as induction of channel current at 1 uM at -65 mV holding potential by whole cell voltage clamp method relative to alpha,beta-meATP",
  "data": [
    {"smiles": "CC1(C)O[C@@H]2[C@H](O1)[C@@H](COP(=O)(O)OP(=O)(O)OP(=O)(O)O)O[C@H]2n1cnc2c(N)ncnc21", "values": [
      {"measurement": "Activity", "result": 23, "unit": "%"}
    ]}
  ]
}
